Data as given in article PMC9120017, “Inhibition mechanism of the chloride channel TMEM16A by the pore blocker 1PBC” (Nature Communications, 2022).
Like-named read-outs stand apart in the source and are kept apart here.

Target: T1, mouse TMEM16A mutant Q649A (Mus musculus, UniProt Q8BHY3, Q649A)
T1 construct: expressed in transfected cells; host or cells: HEK293T
T1 sequence (Q8BHY3 1-960 Q649A): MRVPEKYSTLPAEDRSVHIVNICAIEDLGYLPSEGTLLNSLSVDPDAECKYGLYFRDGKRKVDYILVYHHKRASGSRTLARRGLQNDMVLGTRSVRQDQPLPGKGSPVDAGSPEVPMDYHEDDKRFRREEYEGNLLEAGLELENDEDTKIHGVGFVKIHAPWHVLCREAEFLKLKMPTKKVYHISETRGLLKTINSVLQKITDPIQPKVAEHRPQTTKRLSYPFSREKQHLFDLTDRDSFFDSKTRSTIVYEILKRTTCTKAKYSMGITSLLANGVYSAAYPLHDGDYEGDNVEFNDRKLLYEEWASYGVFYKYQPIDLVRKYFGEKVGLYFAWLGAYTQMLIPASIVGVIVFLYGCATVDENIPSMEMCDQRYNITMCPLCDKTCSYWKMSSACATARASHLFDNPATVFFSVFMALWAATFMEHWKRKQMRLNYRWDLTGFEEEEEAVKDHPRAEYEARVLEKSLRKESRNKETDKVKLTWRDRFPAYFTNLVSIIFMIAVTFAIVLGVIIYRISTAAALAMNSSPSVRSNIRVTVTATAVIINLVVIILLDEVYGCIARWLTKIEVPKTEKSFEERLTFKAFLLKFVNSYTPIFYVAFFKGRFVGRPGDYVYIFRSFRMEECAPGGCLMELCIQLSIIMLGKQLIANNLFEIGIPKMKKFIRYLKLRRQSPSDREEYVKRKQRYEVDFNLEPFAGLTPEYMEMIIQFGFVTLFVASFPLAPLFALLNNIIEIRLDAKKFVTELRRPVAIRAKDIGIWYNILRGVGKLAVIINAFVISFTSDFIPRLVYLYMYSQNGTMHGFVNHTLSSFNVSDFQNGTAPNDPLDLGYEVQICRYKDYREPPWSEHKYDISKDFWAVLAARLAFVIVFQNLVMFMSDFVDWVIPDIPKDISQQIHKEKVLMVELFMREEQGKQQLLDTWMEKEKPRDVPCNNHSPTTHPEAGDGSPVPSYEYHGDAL
Test: Inside-out patch recording of 1PBC block, constitutively active mutant Q649A
Assay type: cell-based
Conditions: for remaining activity at 3 µM: 3 µM 1PBC; for remaining activity at 10 µM: 10 µM 1PBC; for remaining activity at 30 µM: 30 µM 1PBC
Procedure: HEK293T cells (ATCC CRL-1573) were maintained in Dulbecco’s modified Eagle’s medium (DMEM; Sigma-Aldrich) supplemented with 10 U ml^−1 penicillin, 0.1 mg ml^−1 streptomycin (Sigma-Aldrich), 2 mM L-glutamine (Sigma-Aldrich), and 10% FBS (Sigma-Aldrich) in a humidified atmosphere containing 5% CO2 at 37 °C. HEK293S GnTI^− cells (ATCC CRL-3022) were maintained in HyClone HyCell TransFx-H medium (GE Healthcare) supplemented with 10 U ml^−1 penicillin, 0.1 mg ml^−1 streptomycin, 4 mM L-glutamine, 0.15% poloxamer 188 (Sigma-Aldrich), and 1% FBS in an atmosphere containing 5% CO2 at 185 rpm at 37 °C. The ac splice variant of mouse TMEM16A (UniProt ID: Q8BHY3), mouse TMEM16B (UniProt ID: Q8CFW1), or mouse TMEM16F (UniProt ID: Q6P9J9) bearing a 3C cleavage site, a Venus YFP, a Myc tag, and a Streptavidin-binding peptide (SBP) downstream of the open reading frame in a modified pcDNA3.1 vector (Invitrogen) were used as described previously[21],[31]. Mutations were introduced using a modified QuikChange method[58] and were verified by sequencing.
HEK293T cells were transfected with 3–4 μg DNA per 6 cm Petri dish using the calcium phosphate co-precipitation method and were used within 24–96 h after transfection. Recordings were performed on inside-out patches excised from HEK293T cells expressing the construct of interest. Patch pipettes were pulled from borosilicate glass capillaries (O.D. 1.5 mm, I.D. 0.86 mm, Sutter Instrument) and were fire-polished with a microforge (Narishige) before use. Pipette resistance was typically 3–8 MΩ when filled with the recording solutions detailed below. Seal resistance was typically 4 GΩ or higher. Voltage-clamp recordings were made using Axopatch 200B, Digidata 1550, and Clampex 10.7 (Molecular Devices). Analog signals were filtered with the in-built 4-pole Bessel filter at 10 kHz and were digitized at 20 kHz. Solution exchange was achieved using a gravity-fed system through a theta glass pipette mounted on an ultra-fast piezo-driven stepper (Siskiyou). […] All recordings were performed at 20 °C.
A symmetrical ionic condition was used throughout. Stock solution with Ca^2+-EGTA contained 150 mM NaCl, 5.99 mM Ca(OH)2, 5 mM EGTA, and 10 mM HEPES at pH 7.40. Stock solution with EGTA contained 150 mM NaCl, 5 mM EGTA, and 10 mM HEPES at pH 7.40. Free Ca^2+ concentrations were adjusted by mixing the stock solutions at the required ratios calculated using the WEBMAXC program (http://web.stanford.edu/~cpatton/webmaxcS.htm). Patch pipettes were filled with the stock solution with Ca^2+-EGTA, which has a free Ca^2+ concentration of 1 mM. 1PBC (ChemBridge) stock was reconstituted in anhydrous DMSO (Sigma-Aldrich) at 100 mM and stored at −20 °C. Working solutions with 1PBC were prepared by serial dilution. Unless otherwise stated, experiments were performed at a saturating Ca^2+ concentration as shown in Supplementary Table 1 and the primary data were corrected for current rundown as described previously[21],[25].
Concentration-response relations, obtained from the ratio of the I-V plots before and after the application of the blocker, were fitted to the Hill equation,1 I/Imax=1/1+IC50/[blocker]^h where I/Imax is the normalized current responses, IC50 defines the concentration at which inhibition is at its half-maximum, and h is the Hill coefficient.

[1] = 0 mV, 2 µM Ca2+, read-out: I/Imax
[2] = 0 mV, zero Ca2+, read-out: I/Imax

I/Imax_+80mV (0Ca, 3 μM 1PBC): 0.8995
I/Imax_-80mV (0Ca, 3 μM 1PBC): 0.9942
I/Imax_+80mV (0Ca, 10 μM 1PBC): 0.7384
I/Imax_-80mV (0Ca, 10 μM 1PBC): 0.9446
I/Imax_+80mV (0Ca, 30 μM 1PBC): 0.483
I/Imax_-80mV (0Ca, 30 μM 1PBC): 0.815
I/Imax_+80mV (0Ca, 100 μM 1PBC): 0.2577
I/Imax_-80mV (0Ca, 100 μM 1PBC): 0.578
remaining activity at 1 µM (1 µM 1PBC, 0 mV, 2 µM Ca2+, read-out: I/Imax): 80%
remaining activity at 3 µM [1]: 57.9%
remaining activity at 3 µM [2]: 92.9%
remaining activity at 10 µM [1]: 31.4%
remaining activity at 10 µM [2]: 84.7%
remaining activity at 30 µM [1]: 13.7%
remaining activity at 30 µM [2]: 63.9%
remaining activity at 100 µM (100 µM 1PBC, 0 mV, zero Ca2+, read-out: I/Imax): 39.9%
I/Imax_+80mV (Ca, 1 μM 1PBC): 0.7635
I/Imax_-80mV (Ca, 1 μM 1PBC): 0.9086
I/Imax_+80mV (Ca, 3 μM 1PBC): 0.5067
I/Imax_-80mV (Ca, 3 μM 1PBC): 0.7508
I/Imax_+80mV (Ca, 10 μM 1PBC): 0.2578
I/Imax_-80mV (Ca, 10 μM 1PBC): 0.4875
I/Imax_+80mV (Ca, 30 μM 1PBC): 0.09866
I/Imax_-80mV (Ca, 30 μM 1PBC): 0.2347
Decrease in potency of block, Ca2+-free form vs Ca2+-bound state (zero vs 2 µM Ca2+): about ten-fold
SMILES: N#Cc1c(C(F)(F)F)cc(O)n2c1nc1ccccc12 [1PBC]
